How the values were obtained:
[1] = Sensory evaluation of aqueous solution II containing (E)-2-octenal 10 ppb: off-flavor intensity and masking component intensity; settings: average panel score
Protocol: (§1) In ion-exchanged water, each degradation component was added to achieve the concentrations listed in Table 1, and aqueous solutions I to VI containing these degradation components were prepared.
(§2) For the aforementioned aqueous solutions containing degradation components, nootkatone was added at the concentrations listed in Table 2 to confirm the intensity of the off-flavor (masking effect) in each sample and the intensity of the masking component itself (the impact on the flavor of the food and/or beverage itself).
(§3) The test was conducted as follows. Eight experienced panelists were selected to conduct a sensory evaluation. The intensity of the off-flavor of the aqueous solution containing the degradation components derived from unsaturated fatty acids, without added masking components, was set as “Evaluation: 4.” The ion-exchanged water free of any degradation components was set as “Evaluation: 0.” The intensity of the off-flavor (masking effect) of each sample was then relatively evaluated according to the following evaluation criteria.
(§4) • Off-flavor is strongly sensed: 4 points • Off-flavor is sensed: 3 points • Off-flavor is slightly sensed: 2 points • Off-flavor is barely sensed: 1 point • Off-flavor is not sensed at all: 0 points
(§5) Also, the intensity of the masking components (impact on the flavor of the food and/or beverage itself) was absolutely evaluated according to the following evaluation criteria.
(§6) • Masking component is strongly sensed: 4 points • Masking component is sensed: 3 points • Masking component is slightly sensed: 2 points • Masking component is barely sensed: 1 point • Masking component is not sensed at all: 0 points

[2] = Sensory evaluation of aqueous solution V containing 1-octen-3-ol 10 ppb: off-flavor intensity and masking component intensity; settings: average panel score
Protocol: as §1, §2, §3, §4, §5, §6

[3] = Overall conclusion of the sensory evaluation across aqueous solutions I to VI
Protocol: as §1, §2, §3, §4, §5, §6

[4] = Sensory evaluation of aqueous solution IV containing 1,5-octadien-3-one 100 ppt: off-flavor intensity and masking component intensity; settings: aqueous solution IV, average panel score
Protocol: as §1, §2, §3, §4, §5, §6

[5] = Sensory evaluation of aqueous solution VI containing 1,5-octadien-3-ol 10 ppb: off-flavor intensity and masking component intensity; settings: aqueous solution VI, average panel score
Protocol: as §1, §2, §3, §4, §5, §6

[6] = Sensory evaluation of aqueous solution III containing 1-octen-3-one 1 ppb: off-flavor intensity and masking component intensity; settings: average panel score
Protocol: as §1, §2, §3, §4, §5, §6

[7] = Sensory evaluation of aqueous solution I containing (E)-2-nonenal 1 ppb: off-flavor intensity and masking component intensity; settings: average panel score
Protocol: as §1, §2, §3, §4, §5, §6

## CC1CCC(C(C)C)C(OCC(O)CO)C1 (stereo not shown) [3-menthoxypropan-1,2-diol]
[1]; 1 ppb added
  Masking Component Intensity: 0.4
  Off-Flavor Intensity: 3.0
[1]; 1 ppm added
  Masking Component Intensity: 1.4
  Off-Flavor Intensity: 2.3
[1]; 10 ppb added
  Masking Component Intensity: 0.5
  Off-Flavor Intensity: 3.0
[1]; 10 ppm added
  Masking Component Intensity: 2.0
  Off-Flavor Intensity: 1.8
[1]; 50 ppm added
  Masking Component Intensity: 3.1
  Off-Flavor Intensity: 1.5
[1]; 100 ppb added
  Masking Component Intensity: 1.0
  Off-Flavor Intensity: 2.8
[1]; 100 ppm added
  Masking Component Intensity: 4.0
  Off-Flavor Intensity: 1.1
[1]; 100 ppt added
  Masking Component Intensity: 0.4
  Off-Flavor Intensity: 3.1
[2]; 1 ppb added
  Masking Component Intensity: 0.3
  Off-Flavor Intensity: 3.1
[2]; 1 ppm added
  Masking Component Intensity: 1.4
  Off-Flavor Intensity: 2.6
[2]; 10 ppb added
  Masking Component Intensity: 0.6
  Off-Flavor Intensity: 2.6
[2]; 10 ppm added
  Masking Component Intensity: 2.1
  Off-Flavor Intensity: 2.0
[2]; 50 ppm added
  Masking Component Intensity: 2.0
  Off-Flavor Intensity: 1.6
[2]; 100 ppb added
  Masking Component Intensity: 1.0
  Off-Flavor Intensity: 2.5
[2]; 100 ppm added
  Masking Component Intensity: 3.8
  Off-Flavor Intensity: 1.4
[2]; 100 ppt added
  Masking Component Intensity: 0.3
  Off-Flavor Intensity: 3.3
[3]
  concentration that masks the off-flavor and does not affect the flavor of the food and/or beverage itself, lower limit: ≥ 100 ppt
  concentration that masks the off-flavor and does not affect the flavor of the food and/or beverage itself, upper limit: ≤ 100 ppm
[4]; 1 ppb added
  Masking Component Intensity: 0.0
  Off-Flavor Intensity: 3.8
[4]; 1 ppm added
  Masking Component Intensity: 1.0
  Off-Flavor Intensity: 3.3
[4]; 10 ppb added
  Masking Component Intensity: 0.1
  Off-Flavor Intensity: 3.5
[4]; 10 ppm added
  Masking Component Intensity: 1.5
  Off-Flavor Intensity: 2.9
[4]; 50 ppm added
  Masking Component Intensity: 2.4
  Off-Flavor Intensity: 2.5
[4]; 100 ppb added
  Masking Component Intensity: 0.9
  Off-Flavor Intensity: 3.5
[4]; 100 ppm added
  Masking Component Intensity: 3.0
  Off-Flavor Intensity: 2.1
[4]; 100 ppt added
  Masking Component Intensity: 0.0
  Off-Flavor Intensity: 3.9
[5]; 1 ppb added
  Masking Component Intensity: 0.1
  Off-Flavor Intensity: 3.0
[5]; 1 ppm added
  Masking Component Intensity: 0.8
  Off-Flavor Intensity: 2.6
[5]; 10 ppb added
  Masking Component Intensity: 0.4
  Off-Flavor Intensity: 3.0
[5]; 10 ppm added
  Masking Component Intensity: 2.0
  Off-Flavor Intensity: 2.3
[5]; 50 ppm added
  Masking Component Intensity: 2.9
  Off-Flavor Intensity: 1.9
[5]; 100 ppb added
  Masking Component Intensity: 0.4
  Off-Flavor Intensity: 3.0
[5]; 100 ppm added
  Masking Component Intensity: 3.5
  Off-Flavor Intensity: 1.3
[5]; 100 ppt added
  Masking Component Intensity: 0.0
  Off-Flavor Intensity: 3.0
[6]; 1 ppb added
  Masking Component Intensity: 0.5
  Off-Flavor Intensity: 3.3
[6]; 1 ppm added
  Masking Component Intensity: 1.5
  Off-Flavor Intensity: 2.5
[6]; 10 ppb added
  Masking Component Intensity: 0.6
  Off-Flavor Intensity: 2.9
[6]; 10 ppm added
  Masking Component Intensity: 2.1
  Off-Flavor Intensity: 2.3
[6]; 50 ppm added
  Masking Component Intensity: 3.0
  Off-Flavor Intensity: 1.9
[6]; 100 ppb added
  Masking Component Intensity: 1.1
  Off-Flavor Intensity: 2.8
[6]; 100 ppm added
  Masking Component Intensity: 3.8
  Off-Flavor Intensity: 1.6
[6]; 100 ppt added
  Masking Component Intensity: 0.1
  Off-Flavor Intensity: 3.3
[7]; 1 ppb added
  Masking Component Intensity: 0.3
  Off-Flavor Intensity: 3.4
[7]; 1 ppm added
  Masking Component Intensity: 1.1
  Off-Flavor Intensity: 2.9
[7]; 10 ppb added
  Masking Component Intensity: 0.6
  Off-Flavor Intensity: 3.1
[7]; 10 ppm added
  Masking Component Intensity: 1.9
  Off-Flavor Intensity: 2.6
[7]; 50 ppm added
  Masking Component Intensity: 2.5
  Off-Flavor Intensity: 1.9
[7]; 100 ppb added
  Masking Component Intensity: 0.8
  Off-Flavor Intensity: 3.1
[7]; 100 ppm added
  Masking Component Intensity: 3.3
  Off-Flavor Intensity: 1.8
[7]; 100 ppt added
  Masking Component Intensity: 0.3
  Off-Flavor Intensity: 3.4

## CC(C)C=C(C=O)c1ccccc1 [4-methyl-2-phenyl-2-pentenal]
[1]; 1 ppb added
  Masking Component Intensity: 0.5
  Off-Flavor Intensity: 2.8
[1]; 1 ppm added
  Masking Component Intensity: 2.1
  Off-Flavor Intensity: 1.6
[1]; 5 ppm added
  Masking Component Intensity: 2.6
  Off-Flavor Intensity: 1.4
[1]; 10 ppb added
  Masking Component Intensity: 1.1
  Off-Flavor Intensity: 2.5
[1]; 10 ppm added
  Masking Component Intensity: 3.4
  Off-Flavor Intensity: 1.0
[1]; 50 ppm added
  Masking Component Intensity: 3.9
  Off-Flavor Intensity: 0.6
[1]; 100 ppb added
  Masking Component Intensity: 1.6
  Off-Flavor Intensity: 2.0
[1]; 100 ppt added
  Masking Component Intensity: 0.4
  Off-Flavor Intensity: 3.0
[2]; 1 ppb added
  Masking Component Intensity: 0.8
  Off-Flavor Intensity: 2.3
[2]; 1 ppm added
  Masking Component Intensity: 2.4
  Off-Flavor Intensity: 1.1
[2]; 5 ppm added
  Masking Component Intensity: 2.8
  Off-Flavor Intensity: 0.8
[2]; 10 ppb added
  Masking Component Intensity: 1.4
  Off-Flavor Intensity: 1.8
[2]; 10 ppm added
  Masking Component Intensity: 3.5
  Off-Flavor Intensity: 0.6
[2]; 50 ppm added
  Masking Component Intensity: 3.9
  Off-Flavor Intensity: 0.5
[2]; 100 ppb added
  Masking Component Intensity: 1.6
  Off-Flavor Intensity: 1.6
[2]; 100 ppt added
  Masking Component Intensity: 0.6
  Off-Flavor Intensity: 2.8
[3]
  concentration that masks the off-flavor and does not affect the flavor of the food and/or beverage itself, lower limit: ≥ 100 ppt
  concentration that masks the off-flavor and does not affect the flavor of the food and/or beverage itself, upper limit: ≤ 10 ppm
[4]; 1 ppb added
  Masking Component Intensity: 0.4
  Off-Flavor Intensity: 3.6
[4]; 1 ppm added
  Masking Component Intensity: 1.9
  Off-Flavor Intensity: 2.3
[4]; 5 ppm added
  Masking Component Intensity: 2.3
  Off-Flavor Intensity: 2.0
[4]; 10 ppb added
  Masking Component Intensity: 1.0
  Off-Flavor Intensity: 3.0
[4]; 10 ppm added
  Masking Component Intensity: 3.0
  Off-Flavor Intensity: 1.4
[4]; 50 ppm added
  Masking Component Intensity: 3.6
  Off-Flavor Intensity: 1.0
[4]; 100 ppb added
  Masking Component Intensity: 1.4
  Off-Flavor Intensity: 2.6
[4]; 100 ppt added
  Masking Component Intensity: 0.3
  Off-Flavor Intensity: 3.6
[5]; 1 ppb added
  Masking Component Intensity: 0.3
  Off-Flavor Intensity: 1.8
[5]; 1 ppm added
  Masking Component Intensity: 1.8
  Off-Flavor Intensity: 0.9
[5]; 5 ppm added
  Masking Component Intensity: 2.4
  Off-Flavor Intensity: 0.4
[5]; 10 ppb added
  Masking Component Intensity: 0.8
  Off-Flavor Intensity: 1.4
[5]; 10 ppm added
  Masking Component Intensity: 3.1
  Off-Flavor Intensity: 0.4
[5]; 50 ppm added
  Masking Component Intensity: 3.5
  Off-Flavor Intensity: 0.1
[5]; 100 ppb added
  Masking Component Intensity: 1.3
  Off-Flavor Intensity: 1.0
[5]; 100 ppt added
  Masking Component Intensity: 0.0
  Off-Flavor Intensity: 2.1
[6]; 1 ppb added
  Masking Component Intensity: 0.9
  Off-Flavor Intensity: 3.4
[6]; 1 ppm added
  Masking Component Intensity: 2.5
  Off-Flavor Intensity: 2.1
[6]; 5 ppm added
  Masking Component Intensity: 3.0
  Off-Flavor Intensity: 1.8
[6]; 10 ppb added
  Masking Component Intensity: 1.4
  Off-Flavor Intensity: 3.1
[6]; 10 ppm added
  Masking Component Intensity: 3.5
  Off-Flavor Intensity: 1.6
[6]; 50 ppm added
  Masking Component Intensity: 3.8
  Off-Flavor Intensity: 1.3
[6]; 100 ppb added
  Masking Component Intensity: 1.8
  Off-Flavor Intensity: 2.6
[6]; 100 ppt added
  Masking Component Intensity: 0.5
  Off-Flavor Intensity: 3.6
[7]; 1 ppb added
  Masking Component Intensity: 0.5
  Off-Flavor Intensity: 2.8
[7]; 1 ppm added
  Masking Component Intensity: 1.9
  Off-Flavor Intensity: 1.6
[7]; 5 ppm added
  Masking Component Intensity: 2.9
  Off-Flavor Intensity: 1.1
[7]; 10 ppb added
  Masking Component Intensity: 0.9
  Off-Flavor Intensity: 2.3
[7]; 10 ppm added
  Masking Component Intensity: 3.8
  Off-Flavor Intensity: 0.5
[7]; 50 ppm added
  Masking Component Intensity: 4.0
  Off-Flavor Intensity: 0.3
[7]; 100 ppb added
  Masking Component Intensity: 1.4
  Off-Flavor Intensity: 1.8
[7]; 100 ppt added
  Masking Component Intensity: 0.4
  Off-Flavor Intensity: 3.3

Reference: patent US20250176599A1, “FLAVOR COMPOSITION AND FOOD AND BEVERAGE” (TAKASAGO INTERNATIONAL CORPORATION, priority 2021, published 2025)
